These results are taken from patent US10214542B2, “Modified macrocyclic compounds” (BAYER PHARMA AKTIENGESELLSCHAFT, priority 2015, dated 2019).

Where two headings read alike, the source gives them in different places.

The test system of one experiment is A2780 cells. As to the kind of experiment: Proliferation assay, Cell Titre-Glo viability (Method 3). The settings on record: A2780, 72-hour exposure, read-out: Inhibition of A2780 cell proliferation IC50. It is filed as cell-based, human. As for the experimental part: (§1) A2780 human ovarian carcinoma cells (ECACC #93112519) and non-adherent MOLM-13 human acute myeloid leukemia cells (DSMZ ACC 554) were seeded at a density of 3,000 cell/well (A2780) or 5,000 cells/well (MOLM-13) in a 96-well multititer plate in 150 μL of growth medium supplemented 10% fetal calf serum. After 24 hours, cell viability of one plate (zero-point plate) was determined with the Cell Titre-Glo Luminescent Cell Viability Assay (Promega), while the medium of the other plates was supplemented with the test substances in various concentrations (0 μM, as well as in the range of 0.0001-10 μM; the final concentration of the solvent dimethyl sulfoxide was adjusted to 0.1%) using a Hewlett-Packard HP D300 Digital Dispenser. Cell viability was assessed after 72-hour exposure with the Cell
(§2) Titre-Glo Luminescent Cell Viability Assay (Promega). IC50 values (inhibitory concentration at 50% of maximal effect) were determined by means of a 4 parameter fit on measurement data which were normalized to vehicle (DMSO) treated cells (=100%) and measurement readings taken immediately before compound exposure (=0%).

A further experiment concerns the target T1, CDK9/CycT1 (Homo sapiens, UniProt P50750).
T1 construct: Recombinant full-length His-tagged human CDK9 and CycT1; His; purchased Invitrogen PV4131; host or cells: insect cells
As to the kind of experiment: CDK9/CycT1 high ATP kinase assay (TR-FRET, Method 1b). Type of experiment: biochemical. As to conditions: 2 mM ATP; for IC50: Method 1b; for Selectivity high ATP CDK9 over high ATP CDK2: IC50 (high ATP CDK2)/IC50 (high ATP CDK9): Methods 1b and 2b. As for the experimental part: 1b. CDK9/CycT1 High ATP Kinase Assay
CDK9/CycT1-inhibitory activity of compounds of the present invention at a high ATP concentration after preincubation of enzyme and test compounds was quantified employing the CDK9/CycT1 TR-FRET assay as described in the following paragraphs.
Recombinant full-length His-tagged human CDK9 and CycT1, expressed in insect cells and purified by Ni-NTA affinity chromatography, were purchase from Invitrogen (Cat. No PV4131). As substrate for the kinase reaction biotinylated peptide biotin-Ttds-YISPLKSPYKISEG (C-terminus in amid form) was used which can be purchased e.g. from the company JERINI peptide technologies (Berlin, Germany).
For the assay 50 nl of a 100 fold concentrated solution of the test compound in DMSO was pipetted into a black low volume 384 well microtiter plate (Greiner Bio-One, Frickenhausen, Germany), 2 μl of a solution of CDK9/CycT1 in aqueous assay buffer [50 mM Tris/HCl pH 8.0, 10 mM MgCl2, 1.0 mM dithiothreitol, 0.1 mM sodium ortho-vanadate, 0.01% (v/v) Nonidet-P40 (Sigma)] were added and the mixture was incubated for 15 min at 22° C. to allow pre-binding of the test compounds to the enzyme before the start of the kinase reaction. […] The concentration of CDK9/CycT1 was adjusted depending of the activity of the enzyme lot and was chosen appropriate to have the assay in the linear range, typical concentrations were in the range of 0.5 μg/mL. The reaction was stopped by the addition of 5 μl of a solution of TR-FRET detection reagents (0.2 μM streptavidine-XL665 [Cisbio Bioassays, Codolet, France] and 1 nM anti-RB(pSer807/pSer811)-antibody from BD Pharmingen [#558389] and 1.2 nM LANCE EU-W1024 labeled anti-mouse IgG antibody [Perkin-Elmer, product no. AD0077]) in an aqueous EDTA-solution (100 mM EDTA, 0.2% (w/v) bovine serum albumin in 100 mM HEPES pH 7.5).
The resulting mixture was incubated 1 h at 22° C. to allow the formation of complex between the phosphorylated biotinylated peptide and the detection reagents. Subsequently the amount of phosphorylated substrate was evaluated by measurement of the resonance energy transfer from the Eu-chelate to the streptavidine-XL. Therefore, the fluorescence emissions at 620 nm and 665 nm after excitation at 350 nm was measured in a HTRF reader, e.g. a Rubystar (BMG Labtechnologies, Offenburg, Germany) or a Viewlux (Perkin-Elmer). The ratio of the emissions at 665 nm and at […] was taken as the measure for the amount of phosphorylated substrate. The data were normalised (enzyme reaction without inhibitor=0% inhibition, all other assay components but no enzym=100% inhibition).

The test system of a further experiment is MOLM-13 cells. As to the kind of experiment: Proliferation assay, Cell Titre-Glo viability (Method 3). Type of experiment: cell-based. As to conditions: Homo sapiens; MOLM-13, 72-hour exposure; read-out: Inhibition of MOLM-13 cell proliferation IC50. The procedure:
as §1, §2

T1 sequence (P50750 whole entry): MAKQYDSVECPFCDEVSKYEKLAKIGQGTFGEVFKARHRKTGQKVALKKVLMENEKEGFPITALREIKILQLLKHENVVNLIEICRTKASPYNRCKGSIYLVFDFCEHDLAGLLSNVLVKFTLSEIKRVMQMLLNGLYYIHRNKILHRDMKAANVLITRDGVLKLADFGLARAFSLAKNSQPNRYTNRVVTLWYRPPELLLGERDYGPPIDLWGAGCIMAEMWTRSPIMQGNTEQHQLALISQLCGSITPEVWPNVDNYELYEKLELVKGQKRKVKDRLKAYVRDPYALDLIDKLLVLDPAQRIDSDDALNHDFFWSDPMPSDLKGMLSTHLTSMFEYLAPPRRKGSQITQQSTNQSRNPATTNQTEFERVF
T1 sequence (O60563 whole entry partner): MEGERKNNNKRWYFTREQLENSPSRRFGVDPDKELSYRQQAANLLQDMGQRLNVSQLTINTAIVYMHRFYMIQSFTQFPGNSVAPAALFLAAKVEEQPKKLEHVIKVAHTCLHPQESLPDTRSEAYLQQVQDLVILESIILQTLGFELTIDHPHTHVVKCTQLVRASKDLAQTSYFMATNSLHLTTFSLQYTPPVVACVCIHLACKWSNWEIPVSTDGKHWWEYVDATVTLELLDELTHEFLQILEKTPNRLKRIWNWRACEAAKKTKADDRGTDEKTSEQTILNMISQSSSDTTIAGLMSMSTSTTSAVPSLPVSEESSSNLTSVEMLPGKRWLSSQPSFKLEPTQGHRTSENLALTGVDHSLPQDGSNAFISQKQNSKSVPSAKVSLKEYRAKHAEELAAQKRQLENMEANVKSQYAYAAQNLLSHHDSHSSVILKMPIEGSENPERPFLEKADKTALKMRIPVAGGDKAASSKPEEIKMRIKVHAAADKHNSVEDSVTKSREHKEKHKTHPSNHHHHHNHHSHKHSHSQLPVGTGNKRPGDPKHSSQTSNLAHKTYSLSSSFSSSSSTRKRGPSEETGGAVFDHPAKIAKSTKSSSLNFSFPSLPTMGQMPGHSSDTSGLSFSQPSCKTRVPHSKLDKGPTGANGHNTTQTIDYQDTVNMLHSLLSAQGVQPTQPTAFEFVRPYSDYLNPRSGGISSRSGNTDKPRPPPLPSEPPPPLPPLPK

As to `CC(C)(C)OC(=O)N=S(C)(=O)Cc1cc2cc(c1)OCCCCNc1cc(F)ccc1-c1nc(ncc1F)N2` (racemic) [Example 15, (rac)-tert-butyl[{[16,20-difluoro-2,3,4,5-tetrahydro-1H,12H-13,17-(azeno)-11,7-(metheno)-6,1,12,14-benzoxatriazacyclononadecin-9-yl]methyl}(methyl)oxido-λ^6-sulfanylidene]carbamate], the IC50 with A2780 cells (Homo sapiens, A2780, 72 h) was 0.031 µM; against CDK9/CycT1, 0.0047 µM; in the experiment with MOLM-13 cells it was 0.018 µM. In addition, on CDK9/CycT1, the “Selectivity high ATP CDK9 over high ATP CDK2: IC50 (high ATP CDK2)/IC50 (high ATP CDK9)” value (“Selectivity high ATP CDK9” for short) stood at 713.

As to `CS(=N)(=O)Cc1cc2cc(c1)OCCCCNc1cc(F)ccc1-c1nc(ncc1F)N2` (racemic) [Example 16, (rac)-16,20-difluoro-9-[(S-methylsulfonimidoyl)methyl]-2,3,4,5-tetrahydro-1H-17,13-(azeno)-7,11-(metheno)-6,1,12,14-benzoxatriazacyclononadecine], the IC50 with A2780 cells (Homo sapiens, A2780, 72 h) was 0.0082 µM; at CDK9/CycT1 it was 0.0015 µM; with MOLM-13 cells, 0.0041 µM. The “Selectivity high ATP CDK9” value at CDK9/CycT1 came out at 151.

Regarding `CN1CCCCNc2cc(F)ccc2-c2nc(ncc2F)Nc2cc(CS(C)(=N)=O)cc1c2.O=CO` (racemic) [Example 17, (rac)-16,20-difluoro-6-methyl-9-[(S-methylsulfonimidoyl)methyl]-1,2,3,4,5,6-hexahydro-12H-17,13-(azeno)-11,7-(metheno)-1,6,12,14-benzotetraazacyclononadecine; salt with formic acid], the IC50 in the experiment with A2780 cells (Homo sapiens, A2780, 72 h) was found to be 0.0065 µM; on CDK9/CycT1 it was 0.0022 µM; with MOLM-13 cells it was 0.013 µM. In addition, the “Selectivity high ATP CDK9” value on CDK9/CycT1 is on record as 283.

In the case of `C[S+]([O-])Cc1cc2nc(c1)OCCCCCc1cc(F)ccc1-c1cc(ncc1F)N2` (racemic) [Example 19, (rac)-2,19-difluoro-9-[(methylsulfinyl)methyl]-14,15,16,17-tetrahydro-6H,13H-7,11-(azeno)-5,1-(metheno)-12,4,6-benzoxadiazacyclononadecine], the IC50 in the experiment with A2780 cells (Homo sapiens, A2780, 72 h) is > 0.1 µM; at CDK9/CycT1 it was 0.017 µM; in the experiment on MOLM-13 cells it was 0.231 µM. Also, on CDK9/CycT1, the “Selectivity high ATP CDK9” value was found to be 82.9.

Regarding `CS(=N)(=O)Cc1cc2nc(c1)OCCCCCc1cc(F)ccc1-c1cc(ncc1F)N2` (racemic) [Example 20, (rac)-2,19-difluoro-9-[(S-methylsulfonimidoyl)methyl]-14,15,16,17-tetrahydro-6H,13H-7,11-(azeno)-5,1-(metheno)-12,4,6-benzoxadiazacyclononadecine], the IC50 in the experiment with A2780 cells is 0.161 µM; with A2780 cells (Homo sapiens, A2780, 72 h), > 0.1 µM; at CDK9/CycT1 it was 0.0052 µM; with MOLM-13 cells it was 0.079 µM. In addition, the “Selectivity high ATP CDK9” value at CDK9/CycT1 is 177.

Take `CC(C)(C)OC(=O)N=S(C)(=O)Cc1cc2cc(c1)OCCCCSc1cc(F)ccc1-c1nc(ncc1F)N2` (racemic) [Example 21, (rac)-tert-butyl[{[16,20-difluoro-2,3,4,5-tetrahydro-12H-17,13-(azeno)-11,7-(metheno)-6,1,12,14-benzoxathiadiazacyclononadecin-9-yl]methyl}(methyl)oxido-λ^6-sulfanylidene]carbamate]: the IC50 with A2780 cells (Homo sapiens, A2780, 72 h) was > 0.1 µM; on CDK9/CycT1 it was 0.013 µM; in the experiment on MOLM-13 cells, 0.162 µM. In addition, on CDK9/CycT1, the “Selectivity high ATP CDK9” value was 915.

`CS(=N)(=O)Cc1cc2cc(c1)OCCCCSc1cc(F)ccc1-c1nc(ncc1F)N2` (racemic) [Example 22, (rac)-16,20-difluoro-9-[(S-methylsulfonimidoyl)methyl]-2,3,4,5-tetrahydro-12H-17,13-(azeno)-11,7-(metheno)-6,1,12,14-benzoxathiadiazacyclononadecine]: the IC50 came to 0.045 µM in the experiment on A2780 cells (Homo sapiens, A2780, 72 h); 0.0045 µM at CDK9/CycT1; 0.023 µM with MOLM-13 cells. Besides, the “Selectivity high ATP CDK9” value on CDK9/CycT1 was determined as 244.
